Test results as given in patent US20210395310A1, “Cyclic Peptide” (The University of Tokyo, priority 2018, published 2021).
Positions of bridges follow the written chain, without caps; N, C: chain ends. Non-standard residues stand in square brackets, D forms with d. Residues, ends and D or L forms follow the SMILES beside them. PEG12 = NCCOCCOCCOCCOCCOCCOCCOCCOCCOCCOCCOCCOCCC(=O)O; βAla = NCCC(=O)O

How the values were obtained:
PC-9 cells = experiment: Gefitinib resistance test; assay type: cell-based, human; conditions: gefitinib, HGF 20 ng/mL, 72 hours
Description: The resistance to gefitinib, an anticancer agent, was tested by seeding human lung cancer cells, PC-9 cells, on a 24-well plate and cultured for 24 hours on a RPMI medium containing 10% fetal bovine serum. The number of living cells was counted after non-addition or addition of gefitinib ([…]), HGF (20 ng/mL), or HiP8-PEG11 (1-1000 nM) and culturing for 72 hours.

HGF [1] = target: T1, HGF (Homo sapiens, UniProt P14210); experiment: Binding of cyclic peptides to immobilized HGF by SPR (Biacore T200); conditions: immobilized biotinylated HGF, single cycle kinetics
T1 construct: the full-length human HGF cDNA was cloned into pEHX1.1 plasmid; made in house; host or cells: Chinese hamster ovary (CHO) cells
Description: Binding of the cyclic peptides to immobilized HGF was measured using surface plasmon resonance (SPR) with Biacore T200 (product of GE Healthcare). Specifically, 2000 resonance units (RU) of biotinylated HGF was immobilized onto a CAP sensor chip by using a biotin capture kit (product of GE Healthcare).
Binding of the cyclic peptides was tested by injecting varying concentrations of the cyclic peptides into an HBS EP+buffer (10 mM HEPES (pH 7.4), 150 mM NaCl, 3 mM EDTA, and 0.05% (v/v) Surfactant P20) containing 0.1% DMSO at a flow rate of 30 μl/min. Binding of the cyclic peptides to HGF was analyzed by single cycle kinetics analysis.

B16-F10 melanoma = experiment: Cell migration test; assay type: cell-based; conditions: transwell, 16 hours
Description: B16F10 cells (1×10^5 cells/insert) cultured in 200 μl of a RPMI1640 medium containing 0.5% FBS were seeded in the upper insert (transwell having a diameter of 8 mm, product of Corning) while 800 μl of a RPMI1640 medium with or without hHGF or HiP-8, or an anti-human HGF rabbit polyclonal antibody and supplemented with 0.5% FBS was added to the bottom chamber. The cells were cultured for 16 hours and fixed with 4% PFA solution in PBS. The cells attached to the bottom surface of the membrane were stained with 0.4% crystal violet solution in 20% methanol and the number of cells was counted.

tcHGF = target: T2, tcHGF (Homo sapiens, UniProt P14210); experiment: Tissue staining of frozen human lung cancer tissue; conditions: thirty six lung cancer tissue sections
T2 construct: subjected to extracellular processing (cleavage) by a specific protease and is to be converted into two-chain HGF; tissue US Biomax FLU401B; host or cells: frozen human lung cancer tissue sections
Description: A frozen human lung cancer tissue array FLU401B was obtained from US Biomax. A tissue section was fixed in a 4% (w/v) paraformaldehyde PBS solution at room temperature for 30 minutes, treated for one hour with a 3% (w/v) bovine serum-derived albumin (BSA) PBS solution to prevent non-specific adsorption of a probe, and incubated overnight at 4° C. with HiP-8-PEG11-biotin, a primary antibody against human HGF (clone: t5A11, Umitsu M, Sakai K, Ogasawara S, Kaneko M, Asaki R, Tamura-Kawakami K, Kato Y, Matsumoto K, Takagi J. Probing conformational and functional states of human hepatocyte growth factor by a panel of monoclonal antibodies. Scientific Reports, 6: 33149, 2016), or phosphorylated MET (phospho Y1230/1234/Y1235, product of Abeam) diluted with Can Get Signal (registered trademark) antibody staining (product of Toyobo).
After washing three times with PBS, the probes were detected with streptavidin or goat anti-mouse IgG labeled with Alexa Fluor 488 and goat anti-rabbit IgG (product of Thermo Fisher Scientific) labeled with Alexa Fluor 594.
For semi-quantitative detection of antibody staining, stained region and mixed region in each tissue was quantitatively determined by ImageJ software (product of NIH). […]

HGF [2] = target: T1, HGF; experiment: Change in conformational structure of HGF: trypsin digestion; conditions: HGF 2.5 μM ± HiP-8 10 μM, room temperature, 30 minutes
Description: System of HGF (2.5 μM) with or without HiP-8 were digested with trypsin at room temperature for 30 minutes. A trypsin:HGF molar ratio was set at 0:1, 0.004:1, 0.012:1, 0.037:1, 0.11:1, 0.33:1, and 1:1. The product obtained by digestion was analyzed on from 5 to 20% SDS-PAGE under reducing conditions and stained with Coomassie Blue.
Target sequence in this assay (P14210 32-489 isoform P14210-3): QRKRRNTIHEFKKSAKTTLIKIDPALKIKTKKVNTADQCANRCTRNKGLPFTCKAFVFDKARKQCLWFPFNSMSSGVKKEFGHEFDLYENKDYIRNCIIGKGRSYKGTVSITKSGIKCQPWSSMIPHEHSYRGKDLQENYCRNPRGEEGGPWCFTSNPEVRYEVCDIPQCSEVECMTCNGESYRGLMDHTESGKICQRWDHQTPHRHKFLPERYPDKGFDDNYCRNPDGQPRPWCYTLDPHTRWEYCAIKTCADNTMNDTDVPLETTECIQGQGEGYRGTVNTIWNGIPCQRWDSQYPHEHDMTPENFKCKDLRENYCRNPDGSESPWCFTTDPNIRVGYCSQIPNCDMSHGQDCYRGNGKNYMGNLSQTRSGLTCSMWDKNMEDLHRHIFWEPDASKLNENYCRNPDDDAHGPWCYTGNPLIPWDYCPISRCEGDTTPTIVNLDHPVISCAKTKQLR
Target sequence in this assay (P14210 495-728): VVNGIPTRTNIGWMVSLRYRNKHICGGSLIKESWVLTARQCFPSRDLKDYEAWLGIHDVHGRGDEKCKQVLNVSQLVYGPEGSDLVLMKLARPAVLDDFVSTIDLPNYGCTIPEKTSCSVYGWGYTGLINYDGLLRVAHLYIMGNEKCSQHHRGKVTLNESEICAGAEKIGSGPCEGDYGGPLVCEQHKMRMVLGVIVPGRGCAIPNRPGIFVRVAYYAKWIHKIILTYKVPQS

HGF-MET interaction = target: T3, HGF-MET interaction (Homo sapiens, UniProt P14210); experiment: Competition of HiP-8 against binding between HGF or HGF fragment and MET ECD by SPR; conditions: immobilized MET external domain, varying HiP-8 concentrations
T3 construct: the full-length human HGF cDNA was cloned into pEHX1.1 plasmid; made in house; host or cells: Chinese hamster ovary (CHO) cells (HGF)
Description: Competition of HiP-8 against the binding between HGF or HGF fragment and MET ECD was measured by surface plasmon resonance (SPR) with Biacore 3000 (product of GE Flealthcare). His-labeled MET-ECD was supported on the surface of a nitrilotriacetic acid (NTA)-coated chip at 1000 RU. HiP-8 was mixed in advance at gradually increasing concentrations with 5 nM HGF, 30 nM NK4, or 30 nM SP fragment, and the resulting mixture was tested in 10 mM TBS (pH 7.4), 300 mM NaCl, and 0.05% Tween 20 (v/v) at a flow rate of 30 μl/min.

[3] = test system: phosphorylation of MET, Gab1, Akt, and Erk1/2; experiment: Western blotting analysis of HGF-induced phosphorylation in EHMES-1 cells; assay type: cell-based; conditions: 2 nM HGF, HiP-8 10, 100, 1,000, 10,000 nM
Description: EHMES-1 cells were cultured on a 6-well plate until they were from 80 to 90% confluent. After starvation for 6 hours, the cells were stimulated for 10 minutes with 2 nM hHGF in a culture medium in the absence of a cyclic peptide or in the presence of 10, 100, 1,000, or 10,000 nM cyclic peptide. The resulting cells were washed with PBS and lysed with 200 μl of lysis buffer 17 (product of R&D Systems) containing 1× Complete protease inhibitor cocktail (product of Roche). The protein concentration was measured by BCA assay (product of Thermo Fisher Scientific), and the protein was provided for 10% polyacrylamide gel SDS-PAGE. The protein was transferred onto a PVDF (polyvinylidene difluoride) membrane (Bio-Rad) and detected using a Can Get Signal (registered trademark) solution 1 containing a primary antibody (diluted at 1:2000), that is, MET (CST, 25H2), phospho-MET (Tyr1234/1235) (CST, D26), Akt (CST, 11E7), phospho-Akt (Ser473) (CST, D9E), Erk1/2 (CST, 137F5), phospho-Erk1/2 (Thr202/Tyr204) (CST, D13.14.4E), Gab1 (CST) and phospho-Gab1 (Tyr627) (CST, C32H2), and Can Get Signal (registered trademark) solution 2 (product of Toyobo) containing a horseradish peroxidase-bound secondary antibody (product of Dako) (diluted at 1:5000). […]

HGF [4] = target: T1, HGF; experiment: Binding of HGF to immobilized HiP8-PEG11 by SPR (Biacore 3000); conditions: immobilized HiP-8-PEG11, read-out: KD of HGF binding to immobilized peptide
Description: (§1) Binding of HGF and HGF fragments to immobilized HiP8-PEG11 was measured by surface plasmon resonance (SPR) with Biacore 3000 (product of Ge Flealthcare). Hip8-PEG11-biotin was supported on the surface of a streptavidin-coated chip at 10 RU (resonance unit). The test was performed by injecting HGF and HGF fragments with varying concentrations into 10 mM TBS (pH 7.4), 150 mM NaCl, and 0.05% Tween 20 (v/v) at a flow rate of 30 μl/min. Binding affinity was analyzed from a fitting model of steady-state affinity by multi-cycle kinetics analysis.
(§2) HGF was an active type HGF without substitution of the cleavage site of wild type HGF (KQLR/V) with the recognition sequence of Factor Xa (IEGR/V) and domain-deficiency and was a two-chain HGF capable of activating MET. tcHGF (Xa) was an HGF with substitution of the cleavage site of the HGF with the recognition sequence of Factor Xa (IEGR/V) and was cleaved into two chains by the Factor Xa treatment. It was also a two-chain HGF capable of activating MET. On the other hand, scHGF (Xa) was obtained by substituting the cleavage site of HGF with the recognition sequence of Factor Xa (IEGR/V).

scHGF(Xa) = target: T4, scHGF(Xa) (Homo sapiens, UniProt P14210, K491I/L493G/Q492E); experiment: Binding of scHGF(Xa) to immobilized HiP8-PEG11 by SPR (Biacore 3000); conditions: immobilized HiP-8-PEG11
T4 construct: The full-length HGF protein and N-terminally truncated HGF protein; hexahistidine (with TEV site) (C, cleaved yes); made in house; host or cells: Expi293F cells
Description: as §1, §2

[5] = test system: MET activation/tyrosine phosphorylation; experiment: MET activation inhibition test in mice; assay type: in vivo; conditions: human HGF knocked-in SCID mice with PC-9 tumors, intravenous injection
Excerpt: PC-9 human non-small cell lung cancer cells, which were to express human HGF, were transplanted subcutaneously to human HGF knocked-in SCID mice at 3×10^6 cells/site. On day 28 after transplantation, HiP8-PEG11 in PBS/phosphate buffered physiological saline solution was intravenously injected. The tumor tissue was removed, and MET activated/tyrosine-phosphorylated and a total MET amount in the tumor tissue were quantitatively determined by western blotting with the tissue extract. It is to be noted that the tumor tissue was homogenized in a RIPA buffer solution. Each sample containing […] of the protein was provided for SDS-PAGE and western blotting. Tyrosine-phosphorylated MET and a total MET amount were detected by western blotting.

T4 sequence (P14210 32-723 isoform P14210-3 K486I/Q487E/L488G): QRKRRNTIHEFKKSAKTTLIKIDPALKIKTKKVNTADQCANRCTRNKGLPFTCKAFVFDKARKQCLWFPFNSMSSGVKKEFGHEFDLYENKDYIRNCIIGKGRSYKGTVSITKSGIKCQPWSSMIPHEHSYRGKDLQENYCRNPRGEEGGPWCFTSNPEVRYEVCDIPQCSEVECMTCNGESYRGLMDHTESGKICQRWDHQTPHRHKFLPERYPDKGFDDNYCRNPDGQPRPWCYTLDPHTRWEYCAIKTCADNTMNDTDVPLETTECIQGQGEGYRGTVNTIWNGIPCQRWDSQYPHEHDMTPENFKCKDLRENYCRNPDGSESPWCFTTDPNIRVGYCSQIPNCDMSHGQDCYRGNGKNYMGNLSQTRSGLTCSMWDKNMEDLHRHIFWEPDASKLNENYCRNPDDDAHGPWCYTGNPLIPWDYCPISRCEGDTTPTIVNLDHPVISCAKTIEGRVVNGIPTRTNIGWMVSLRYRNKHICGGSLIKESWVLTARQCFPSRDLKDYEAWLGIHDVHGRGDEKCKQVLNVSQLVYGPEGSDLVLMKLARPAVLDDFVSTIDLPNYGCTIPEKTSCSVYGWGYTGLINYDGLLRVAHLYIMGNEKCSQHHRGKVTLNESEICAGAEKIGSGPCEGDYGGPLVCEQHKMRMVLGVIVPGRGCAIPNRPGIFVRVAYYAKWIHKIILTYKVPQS
T2 sequence (P14210 32-494 limits assumed): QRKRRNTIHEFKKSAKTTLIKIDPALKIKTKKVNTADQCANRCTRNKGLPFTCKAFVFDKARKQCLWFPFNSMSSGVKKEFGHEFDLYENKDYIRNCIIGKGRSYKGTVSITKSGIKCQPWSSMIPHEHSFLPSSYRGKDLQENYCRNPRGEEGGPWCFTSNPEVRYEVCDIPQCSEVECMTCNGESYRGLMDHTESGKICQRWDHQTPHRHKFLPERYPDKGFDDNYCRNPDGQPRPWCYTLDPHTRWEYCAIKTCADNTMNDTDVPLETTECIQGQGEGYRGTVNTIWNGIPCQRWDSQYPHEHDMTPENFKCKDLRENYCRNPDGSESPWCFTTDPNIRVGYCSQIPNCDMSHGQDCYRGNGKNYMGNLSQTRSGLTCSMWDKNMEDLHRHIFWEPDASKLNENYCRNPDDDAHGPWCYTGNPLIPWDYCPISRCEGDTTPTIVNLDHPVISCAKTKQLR
T2 sequence (P14210 495-728 limits assumed): as the sequence (P14210 495-728) above
T3 sequence (P14210 32-489 isoform P14210-3): as the sequence (P14210 32-489 isoform P14210-3) above
T3 sequence (P14210 495-728): as the sequence (P14210 495-728) above

Row | kon (HGF [1]; read-out: Ka (association rate)) [M⁻¹ s⁻¹] | koff (HGF [1]; read-out: Kd (dissociation rate)) [s⁻¹] | Kd (HGF [4]) [pM] | SMILES | effect on gefitinib resistance induced by HGF (PC-9 cells) | B16-F10 melanoma migration induced by HGF (B16-F10 melanoma) | correlation of staining intensity of tcHGF detected by peptide with pMET (tcHGF) | structural change of HGF (trypsin proteolysis of SP chain) (HGF [2]) | mode of inhibition of HGF-MET interaction (HGF-MET interaction) | phosphorylation of MET, Gab1, Akt, and Erk1/2 induced by HGF [3] | binding of scHGF(Xa) to immobilized peptide (scHGF(Xa)) | MET activation/tyrosine phosphorylation in tumor tissue [5]
1 | 1.1e+06 | 0.0004 |  | CC(C)C[C@@H]1NC(=O)[C@@H]2CCCN2C(=O)[C@@H](Cc2c[nH]c3ccccc23)NC(=O)CSC[C@@H](C(=O)NCC(N)=O)NC(=O)[C@H](CCCNC(=N)N)NC(=O)[C@H](CCCCN)NC(=O)[C@H](CO)NC(=O)[C@H](Cc2ccc(O)cc2)NC(=O)[C@H](Cc2c[nH]c3ccccc23)NC(=O)[C@H](Cc2c[nH]c3ccccc23)NC(=O)[C@H](CCCCN)NC(=O)[C@H](CO)NC1=O [HiP-8, PLSKWWYSKR] | inhibited gefitinib resistance induced by HGF | inhibited B16-F10 melanoma migration induced by HGF at a level equivalent to that of an anti-HGF antibody | strong correlation with the staining intensity of pMET | induced a change in the conformation of HGF | uncompetitive inhibition of HGF-MET interaction | inhibited phosphorylation of MET, Gab1, Akt, and Erk1/2 |  | 
2 |  |  | 900 | CC(C)C[C@@H]1NC(=O)[C@@H]2CCCN2C(=O)[C@H](Cc2c[nH]c3ccccc23)NC(=O)CSC[C@@H](C(=O)NCCC(=O)NCCOCCOCCOCCOCCOCCOCCOCCOCCOCCOCCOCCOCCC(N)=O)NC(=O)[C@H](CCCNC(=N)N)NC(=O)[C@H](CCCCN)NC(=O)[C@H](CO)NC(=O)[C@H](Cc2ccc(O)cc2)NC(=O)[C@H](Cc2c[nH]c3ccccc23)NC(=O)[C@H](Cc2c[nH]c3ccccc23)NC(=O)[C@H](CCCCN)NC(=O)[C@H](CO)NC1=O [HiP-8-PEG11] ({CH2CO}-WPLSKWWYSKRC[βAla][PEG12]-NH2; thioether N-12) |  |  |  |  |  |  | very limited portion of the scHGF(Xa) bound | dose-dependent inhibition of MET activation/tyrosine phosphorylation
